Test results from ChEMBL document CHEMBL5728033 (2020).

What follows are compounds tested against Beta-lactamase (Escherichia coli K-12, UniProt P00811) (assay: Inhibition of Beta-Lactamase Enzymes: A buffer consisting of 0.1 M sodium phosphate (pH 7.0), 10 mM NaHCO3, and 0.005% Triton X-100 was used for all enzymes. The chromogenic substrate nitrocefin (SynGene, Bangalore, India) was used at 100 μM. Enzyme activity was monitored by the 490 nm absorbance increase upon nitrocefin hydrolysis. Assays were performed in clear polystyrene 384-well plates (Greiner Bio-One, Monroe, N.C.). Absorbance was measured for 1 hour at 30-s intervals using a Spectramax absorbance plate reader (Molecular Devices, Sunnyvale, Calif.). Measurement of beta-lactamase inhibition by INHIBITOR employed serial 3-fold dilutions of the inhibitor in assay buffer, ranging from 100 μM to 62.7 pM. A background absorbance progress curve for a control lacking enzyme and inhibitor was subtracted from each progress curve.).
Format: single protein

Sequence of Beta-lactamase (P00811 whole entry): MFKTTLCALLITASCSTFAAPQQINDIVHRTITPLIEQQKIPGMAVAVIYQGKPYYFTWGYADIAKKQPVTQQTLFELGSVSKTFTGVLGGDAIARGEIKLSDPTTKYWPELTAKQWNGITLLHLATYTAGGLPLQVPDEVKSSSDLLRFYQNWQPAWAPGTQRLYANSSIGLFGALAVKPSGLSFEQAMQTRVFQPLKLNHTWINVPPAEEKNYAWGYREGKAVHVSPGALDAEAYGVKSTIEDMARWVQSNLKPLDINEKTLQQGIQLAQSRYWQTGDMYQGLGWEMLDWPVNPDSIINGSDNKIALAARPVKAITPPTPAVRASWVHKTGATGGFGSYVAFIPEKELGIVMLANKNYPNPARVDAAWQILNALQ

Going from `CC1=C[C@@H]2CN(C(=O)N2OCC(=O)O)[C@@H]1C(N)=O` to `CC1=C[C@@H]2CN(C(=O)N2OC(C)(F)C(=O)O)[C@@H]1C(N)=O` (mixture of isomers), the IC50 falls from 1200 nM to 400 nM (3-fold). The second is the more potent here.

`CC1=C[C@@H]2CN(C(=O)N2O[C@@H](F)C(=O)O)[C@@H]1C(=O)NCc1cnccn1` and `CC1=C[C@@H]2CN(C(=O)N2OC(F)C(=O)O)[C@@H]1C(=O)NCc1cnccn1` (some centres not stated) are within 1.5-fold of each other in IC50: 2 nM for the first, 1.8 nM for the second.

Compared with `CC(=O)NNC(=O)[C@@H]1C(C)=C[C@@H]2CN1C(=O)N2OC(F)C(=O)O` (some centres not stated), `CC(=O)NCNC(=O)[C@@H]1C(C)=C[C@@H]2CN1C(=O)N2O[C@@H](F)C(=O)O` is 2.7-fold lower in IC50: 8.3 nM for the first, 3.1 nM for the second.

First: CC1=C[C@@H]2CN(C(=O)N2O[C@@H](F)C(=O)O)[C@@H]1C(=O)NOC[C@@H]1CC(F)(F)CN1
Second: CC1=C[C@@H]2CN(C(=O)N2O[C@@H](F)C(=O)O)[C@@H]1C(=O)NOC[C@@H]1CCCN1
The IC50 of the first is 10-fold lower: 40 nM for the first, 410 nM for the second.

First: CC1=C[C@@H](C(N)=O)N2C[C@@H]1N(OC(F)(F)C(=O)O)C2=O
Second: CC1=C[C@@H]2CN(C(=O)N2OC(F)(F)C(=O)O)[C@@H]1C(N)=O
The IC50 of the first is 3-fold higher: 36 nM for the first, 12 nM for the second. The second is the more potent here.

Compared with `CC1=C[C@@H]2CN(C(=O)N2O[C@@H](F)C(=O)O)[C@@H]1C(=O)NCCNS(N)(=O)=O`, `CC1=C[C@@H]2CN(C(=O)N2O[C@@H](F)C(=O)O)[C@@H]1C(=O)NCCNS(C)(=O)=O` is 1.9-fold lower in IC50: 14 nM for the first, 7.3 nM for the second.

Compared with `CC1=C[C@@H]2CN(C(=O)N2O[C@H](F)C(=O)O)[C@@H]1C(N)=O`, `CC1=C[C@@H]2CN(C(=O)N2O[C@@H](F)C(=O)O)[C@@H]1C(N)=O` is 6.5-fold higher in IC50: 11 nM for the first, 71 nM for the second. The first is the more potent here.

First: CC1=C[C@@H](C#N)N2C[C@@H]1N(O[C@H](F)C(=O)O)C2=O
Second: CC1=C[C@@H](C(N)=O)N2C[C@@H]1N(O[C@H](F)C(=O)O)C2=O
The IC50 of the first is 3.7-fold higher: 590 nM for the first, 160 nM for the second.

First: CC1=C[C@@H]2CN(C(=O)N2O[C@@H](F)C(=O)O)[C@@H]1C(=O)NC1COC1
Second: CC1=C[C@@H]2CN(C(=O)N2O[C@@H](F)C(=O)O)[C@@H]1C(=O)NCO
The IC50 of the first is 3.2-fold higher: 54 nM for the first, 17 nM for the second.

`CC1=C[C@@H]2CN(C(=O)N2O[C@@H](F)C(=O)O)[C@@H]1C(=O)NCCC(N)=O` and `CC1=C[C@@H]2CN(C(=O)N2O[C@@H](F)C(=O)O)[C@@H]1C(=O)NCCS(N)(=O)=O` are within 1.5-fold of each other in IC50: 4.4 nM for the first, 4.1 nM for the second.

Compared with `CC1=C[C@@H](C(N)=O)N2C[C@@H]1N(OCC(=O)O)C2=O`, `CC1=C[C@@H](C(N)=O)N2C[C@@H]1N(O[C@@H](F)C(=O)O)C2=O` is 15-fold lower in IC50: 4600 nM for the first, 300 nM for the second. The second is the more potent here.

First: CC1=C[C@@H]2CN(C(=O)N2O[C@@H](F)C(=O)O)[C@@H]1C(=O)NOC[C@@H]1CCC(=O)N1
Second: CC1=C[C@@H]2CN(C(=O)N2O[C@@H](F)C(=O)O)[C@@H]1C(=O)NCC[C@@H]1CCC(=O)N1
The IC50 of the first is 5.3-fold higher: 53 nM for the first, 10 nM for the second.

`O=C(O)C(F)ON1C(=O)N2C[C@H]1CC[C@H]2C(=O)NC1CCNCC1` (some centres not stated) and `NC(=O)[C@@H]1CC[C@@H]2CN1C(=O)N2O[C@H](F)C(=O)O` are within 1.5-fold of each other in IC50: 1600 nM for the first, 2000 nM for the second.

Compared with `CC1=C[C@@H]2CN(C(=O)N2O[C@@H](F)C(=O)O)[C@@H]1C(=O)NCNS(N)(=O)=O`, `CC1=C[C@@H]2CN(C(=O)N2O[C@@H](F)C(=O)O)[C@@H]1C(=O)NCCCS(N)(=O)=O` is 10-fold higher in IC50: 2.1 nM for the first, 22 nM for the second. The first is the more potent here.

`CC1=C[C@@H]2CN(C(=O)N2O[C@@H](F)C(=O)O)[C@@H]1C(=O)NOCCS(N)(=O)=O` and `CC1=C[C@@H]2CN(C(=O)N2O[C@@H](F)C(=O)O)[C@@H]1C(=O)NOCC1CC1` are within 1.5-fold of each other in IC50: 140 nM for the first, 130 nM for the second.

`CC1=C[C@@H]2CN(C(=O)N2O[C@@H](F)C(=O)O)[C@@H]1C(=O)NCC#N` and `CC1=C[C@@H]2CN(C(=O)N2OC(F)C(=O)O)[C@@H]1C(N)=O` (mixture of isomers) are within 1.5-fold of each other in IC50: 14 nM for the first, 20 nM for the second.

Going from `CC1=C[C@@H]2CN(C(=O)N2O[C@@H](F)C(=O)O)[C@@H]1CNC(=O)OC(C)(C)C` to `CC1=C[C@@H]2CN(C(=O)N2O[C@@H](F)C(=O)O)[C@@H]1C(=O)NCc1ncco1`, the IC50 falls from 44000 nM to 9.3 nM (4700-fold).

Compared with `NC(=O)[C@@H]1C(C2CC2)=C[C@@H]2CN1C(=O)N2O[C@H](F)C(=O)O`, `NC(=O)[C@@H]1C(C2CC2)=C[C@@H]2CN1C(=O)N2O[C@@H](F)C(=O)O` is 4.3-fold higher in IC50: 22 nM for the first, 95 nM for the second. The first is the more potent here.

`CC1=C[C@@H]2CN(C(=O)N2OC(F)C(=O)O)[C@@H]1c1nnc(C(N)=O)o1` (some centres not stated) showed an IC50 of 180 nM.
